Reference: patent US10035804B2, “Spirodiamine derivatives as aldosterone synthase inhibitors” (Hoffmann-La Roche Inc., priority 2014, dated 2018)
pEC50: −log10 of the molar value.

Key:
[1] = target: human CYP11B2 (Homo sapiens (Human), UniProt P19099); assay: G-402 cellular enzyme assay, human CYP11B2 (aldosterone release); format: cell-based; conditions: G-402 cells expressing human CYP11B2; 1 μM Deoxycorticosterone; aldosterone in supernatant after 16 h
Source text: (§1) Herein we identified the use of the G-402 cell line as a host cell to ectopically express (transiently or stably) enzymes of the CYP11 family. Specifically we developed stable G-402 cells expressing ectopically human CYP11B1, human CYP11B2, human CYP11A1, cynmolgus CYP11B1 or cynomolgus CYP11B2 enzyme activity. Importantly the identified cell line G-402 expresses co-factors (adrenodoxin and adrenodoxin reductase) important for the activity of the CYP11 family and no relevant enzyme activity of the CYP11 family (in comparison to H295R cells) was detected in these cells. Therefore the G-402 cell line is uniquely suited as a host cell for the ectopic expression of enzymes from the CYP11 family.
(§2) G-402 cells can be obtained from ATCC (CRL-1440) and were originally derived from a renal leiomyoblastoma.
(§3) The expression plasmids contains the ORF for either human/cyno CYP11B1 or CYP11B2 under the control of a suitable promoter (CMV-promoter) and a suitable resistance marker (neomycin). Using standard techniques the expression plasmid is transfected into G-402 cells and these cells are then selected for expressing the given resistance markers. Individual cell-clones are then selected and assessed for displaying the desired enzymatic activity using 11-Deoxycorticosterone (Cyp11B2) or 11-Deoxycortisol (Cyp11B1) as a substrate.
(§4) G-402 cells expressing CYP11 constructs were established as described above and maintained in McCoy's 5a Medium Modified, ATCC Catalog No. 30-2007 containing 10% FCS and 400 μg/ml G418 (Geneticin) at 37° C. under an atmosphere of 5% CO2/95% air. Cellular enzyme assays were performed in DMEM/F12 medium containing 2.5% charcoal treated FCS and appropriate concentration of substrate (0.3-10 uM 11-Deoxycorticosterone, 11-Deoxycortisol or Corticosterone). For assaying enzymatic activity, cells were plated onto 96 well plates and incubated for 16 h. An aliquot of the supernatant is then transferred and analyzed for the concentration of the expected product (Aldosterone for CYP11B2; Cortisol for CYP11B1). The concentrations of these steroids can be determined using HTRF assays from CisBio analyzing either Aldosterone or Cortisol.
(§5) Inhibition of the release of produced steroids can be used as a measure of the respective enzyme inhibition by test compounds added during the cellular enzyme assay. The dose dependent inhibition of enzymatic activity by a compound is calculated by means of plotting added inhibitor concentrations (x-axes) vs. measured steroid/product level (y-axes). The inhibition is then calculated by fitting the following 4-parameter sigmoidal function (Morgan-Mercer-Flodin (MMF) model) to the raw data points using the least squares method:
(§6) [formula] wherein, A is the maximum y value, B is the EC50 factor determined using XLFit, C is the minimum y value and D is the slope value.
(§7) EC50 values for compounds claimed herein were tested with the G402-based assay system described. Cyp11B2 enzyme activity was tested in presence of 1 μM Deoxycorticosterone and variable amounts of inhibitors; Cyp11B1 enzyme activity was tested in presence of 1 μM Deoxycortisol and variable amounts of inhibitors.

[2] = target: human CYP11B1 (Homo sapiens (Human), UniProt P15538); assay: G-402 cellular enzyme assay, human CYP11B1 (cortisol release); format: cell-based; conditions: G-402 cells expressing human CYP11B1; 1 μM Deoxycortisol; cortisol in supernatant after 16 h
human CYP11B1, sequence (P15538 25-503): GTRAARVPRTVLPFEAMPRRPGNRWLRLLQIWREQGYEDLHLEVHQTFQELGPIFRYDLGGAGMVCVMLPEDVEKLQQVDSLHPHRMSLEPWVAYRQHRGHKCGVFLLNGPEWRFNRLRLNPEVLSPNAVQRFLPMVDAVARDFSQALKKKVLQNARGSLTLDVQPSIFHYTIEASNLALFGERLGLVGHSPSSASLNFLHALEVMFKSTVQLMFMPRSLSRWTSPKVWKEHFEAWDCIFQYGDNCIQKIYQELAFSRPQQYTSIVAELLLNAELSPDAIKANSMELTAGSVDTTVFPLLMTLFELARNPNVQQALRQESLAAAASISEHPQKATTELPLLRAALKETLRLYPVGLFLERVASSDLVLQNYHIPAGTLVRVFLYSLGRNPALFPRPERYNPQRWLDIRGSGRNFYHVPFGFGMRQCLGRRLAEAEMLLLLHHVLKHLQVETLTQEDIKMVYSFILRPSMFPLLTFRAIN
Source text: as §1, §2, §3, §4, §5, §6, §7

[3] = test system: rat model of chronic kidney disease; conditions: cited from earlier work; for cardiac and aortic medial hypertrophy / renal effects (albuminuria, azotemia, renovascular hypertrophy, glomerular injury, PAI-1 and osteopontin mRNA, tubulointerstitial fibrosis): angiotensin II and high salt treated rats
[4] = test system: rats with experimental heart failure; conditions: cited from earlier work
[5] = test system: patients with primary aldosteronism; conditions: oral; cited from earlier work

human CYP11B2, sequence (P19099 25-503): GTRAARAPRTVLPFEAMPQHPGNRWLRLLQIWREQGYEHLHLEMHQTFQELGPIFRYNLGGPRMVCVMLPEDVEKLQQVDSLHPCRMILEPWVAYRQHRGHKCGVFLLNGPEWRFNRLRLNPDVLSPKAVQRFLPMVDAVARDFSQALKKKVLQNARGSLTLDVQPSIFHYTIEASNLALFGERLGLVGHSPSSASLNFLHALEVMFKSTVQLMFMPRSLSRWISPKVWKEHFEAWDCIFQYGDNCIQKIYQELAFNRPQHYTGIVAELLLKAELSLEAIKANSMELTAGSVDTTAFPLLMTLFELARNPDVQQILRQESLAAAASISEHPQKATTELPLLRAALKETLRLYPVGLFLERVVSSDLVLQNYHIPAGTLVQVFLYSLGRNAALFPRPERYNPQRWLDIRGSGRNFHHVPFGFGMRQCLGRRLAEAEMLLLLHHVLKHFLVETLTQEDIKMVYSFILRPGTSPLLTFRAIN

## Cc1nc(C(=O)N2CC3(C2)CN(c2cncc(N4C(=O)c5ccc(Cl)cc5C4(C)C)c2)C3)co1 [Example 45, 5-Chloro-3,3-dimethyl-2-[5-[2-(2-methyloxazole-4-carbonyl)-2,6-diazaspiro[3.3]heptan-6-yl]-3-pyridyl]isoindolin-1-one]
[1]
  pEC50: 10.17
[2]
  pEC50: 8.68

## CC1(C)c2cc(Cl)ccc2C(=O)N1c1cncc(N2CC3(CN(C(=O)c4ncccc4C#N)C3)C2)c1 [Example 46, 2-[6-[5-(6-Chloro-1,1-dimethyl-3-oxo-isoindolin-2-yl)-3-pyridyl]-2,6-diazaspiro[3.3]heptane-2-carbonyl]pyridine-3-carbonitrile]
[1]
  pEC50: 10.42
[2]
  pEC50: 8.41

## Cc1ncc(Cl)c(C(=O)N2CC3(C2)CN(c2cncc(N4C(=O)c5ccc(Cl)cc5C4(C)C)c2)C3)n1 [Example 47, 5-Chloro-2-[5-[2-(5-chloro-2-methyl-pyrimidine-4-carbonyl)-2,6-diazaspiro[3.3]heptan-6-yl]-3-pyridyl]-3,3-dimethyl-isoindolin-1-one]
[1]
  pEC50: 9.30
[2]
  pEC50: 8.08

## Cc1ncnc(C)c1C(=O)N1CC2(C1)CN(c1cncc(N3C(=O)c4ccc(Cl)cc4C3(C)C)c1)C2 [Example 48, 5-Chloro-2-[5-[2-(4,6-dimethylpyrimidine-5-carbonyl)-2,6-diazaspiro[3.3]heptan-6-yl]-3-pyridyl]-3,3-dimethyl-isoindolin-1-one]
[1]
  pEC50: 9.62
[2]
  pEC50: < 7.52

## Cc1ccnc(C)c1C(=O)N1CC2(C1)CN(c1cncc(N3C(=O)c4ccc(Cl)cc4C3(C)C)c1)C2 [Example 49, 5-Chloro-2-[5-[2-(2,4-dimethylpyridine-3-carbonyl)-2,6-diazaspiro[3.3]heptan-6-yl]-3-pyridyl]-3,3-dimethyl-isoindolin-1-one]
[1]
  pEC50: 9.96
[2]
  pEC50: 8.29

## CC1(C)c2cc(Cl)ccc2C(=O)N1c1cncc(N2CC3(CN(C(=O)c4cnccc4C#N)C3)C2)c1 [Example 50, 3-[6-[5-(6-Chloro-1,1-dimethyl-3-oxo-isoindolin-2-yl)-3-pyridyl]-2,6-diazaspiro[3.3]heptane-2-carbonyl]pyridine-4-carbonitrile]
[1]
  pEC50: 10.61
[2]
  pEC50: 7.77

## Cn1cc(C(=O)N2CC3(C2)CN(c2cncc(N4CCc5cc(Cl)ccc5C4=O)c2)C3)cn1 [Example 53, 6-Chloro-2-[5-[2-(1-methylpyrazole-4-carbonyl)-2,6-diazaspiro[3.3]heptan-6-yl]-3-pyridyl]-3,4-dihydroisoquinolin-1-one]
[1]
  pEC50: 10.34
[2]
  pEC50: 7.84

## Cc1ccncc1C(=O)N1CCC2(CC1)CN(c1cncc(N3C(=O)c4ccc(Cl)cc4C3(C)C)c1)C2 [Example 57, 5-Chloro-3,3-dimethyl-2-[5-[7-(4-methylpyridine-3-carbonyl)-2,7-diazaspiro[3.5]nonan-2-yl]-3-pyridyl]isoindolin-1-one]
[1]
  pEC50: 10.31
[2]
  pEC50: 8.01

## N#Cc1ccc([C@H]2CCCc3cncn32)cc1 [FAD286]
[3]
  cardiac and aortic medial hypertrophy: attenuated
  renal effects (albuminuria, azotemia, renovascular hypertrophy, glomerular injury, PAI-1 and osteopontin mRNA, tubulointerstitial fibrosis): prevented these renal effects
[3]; following 4 weeks of treatment
  plasma aldosterone: reduced
[4]
  blood pressure and cardiovascular function and structure: improved
  kidney function and morphology: improve

## N#Cc1ccc([C@H]2CCc3cncn32)c(F)c1 [LC1699]
[5]
  blood pressure: mildly decreased
  circulating aldosterone levels: significantly lower
  hypokalemia: corrected
  selectivity (effects on the glucocorticoid axis, cortisol synthesis): poor selectivity

## CC(=O)S[C@@H]1CC2=CC(=O)CC[C@]2(C)[C@H]2CC[C@@]3(C)[C@@H](CC[C@@]34CCC(=O)O4)[C@H]12 [spironolactone]
[3]
  cardiac and aortic medial hypertrophy: attenuated
  renal effects (albuminuria, azotemia, renovascular hypertrophy, glomerular injury, PAI-1 and osteopontin mRNA, tubulointerstitial fibrosis): prevented these renal effects
[3]; at 4 and 8 weeks of treatment
  aldosterone: increased
[3]; in the aorta and the heart
  angiotensin II and salt-stimulated PAI-1 mRNA expression: enhanced
